Measured values as given in PubChem BioAssay AID1963969 (Molecular Pharmacology Branch, DTP, NCI, 2024).

System: 817829-284-R-J1-PDC multi-cell spheroid viability
Assay: Anticancer human tumor 817829-284-R-J1-PDC patient-derived colon adenocarcinoma cell line growth inhibition [PI3K]
Settings: for IC50: curve of first compound; for viability, T/C: stronger effect = lower value; active = viability on the fitted dose curve at most 10% of control; inactive = the rest
In short: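 Combination activity was assessed by viability in multicellular tumor spheroids carrying HUVEC and MSC components. Agents were tested with PI3K inhibitors from a Cmax-based top dose (or 10 microM) downward in half-log increments.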

[1] = second compound 0.0316 µM, first compound 0.0316 µM
[2] = second compound 0.0316 µM, first compound 0.1 µM
[3] = second compound 0.1 µM, first compound 0.0316 µM
[4] = second compound 0.1 µM, first compound 0.1 µM
[5] = second compound 0.316 µM, first compound 0.0316 µM
[6] = second compound 0.316 µM, first compound 0.1 µM
[7] = second compound 1 µM, first compound 0.0316 µM
[8] = second compound 1 µM, first compound 0.1 µM
[9] = second compound 3.16 µM, first compound 0.0316 µM
[10] = second compound 3.16 µM, first compound 0.1 µM
[11] = second compound 10 µM, first compound 0.0316 µM
[12] = second compound 10 µM, first compound 0.1 µM
[13] = second compound 0.0316 µM, first compound 0.316 µM
[14] = second compound 0.0316 µM, first compound 1 µM
[15] = second compound 0.0316 µM, first compound 3.16 µM
[16] = second compound 0.0316 µM, first compound 10 µM
[17] = second compound 0.1 µM, first compound 0.316 µM
[18] = second compound 0.1 µM, first compound 1 µM
[19] = second compound 0.1 µM, first compound 3.16 µM
[20] = second compound 0.1 µM, first compound 10 µM
[21] = second compound 0.316 µM, first compound 0.316 µM
[22] = second compound 0.316 µM, first compound 1 µM
[23] = second compound 0.316 µM, first compound 3.16 µM
[24] = second compound 0.316 µM, first compound 10 µM
[25] = second compound 1 µM, first compound 0.316 µM
[26] = second compound 1 µM, first compound 1 µM
[27] = second compound 1 µM, first compound 3.16 µM
[28] = second compound 1 µM, first compound 10 µM
[29] = second compound 3.16 µM, first compound 0.316 µM
[30] = second compound 3.16 µM, first compound 1 µM
[31] = second compound 3.16 µM, first compound 3.16 µM
[32] = second compound 3.16 µM, first compound 10 µM
[33] = second compound 10 µM, first compound 0.316 µM
[34] = second compound 10 µM, first compound 1 µM
[35] = second compound 10 µM, first compound 3.16 µM
[36] = second compound 10 µM, first compound 10 µM
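Also: spheroids exposed to agents for seven days before readout.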
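For viability, T/C in this document: percent of vehicle DMSO control viability which is 100%.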

CC(C)n1nc(-c2ccc3oc(N)nc3c2)c2c(N)ncnc21 + CC(Nc1ncnc2nc[nH]c12)c1cc2cccc(Cl)c2c(=O)n1-c1ccccc1
0.0158 µM: IC50 (second compound 0.316 µM)
0.0109 µM: IC50 (second compound 10 µM)
0.0197 µM: IC50 (second compound 0.0316 µM)
0.0339 µM: IC50 (second compound 0.1 µM)
inactive: viability, T/C (second compound 0.0316 µM, first compound 0.000316 µM) 74.9% | viability, T/C (second compound 0.0316 µM, first compound 0.001 µM) 107% | viability, T/C (second compound 0.0316 µM, first compound 0.00316 µM) 57.3% | viability, T/C (second compound 0.0316 µM, first compound 0.01 µM) 62.7% | viability, T/C [1] 44.8% | viability, T/C [2] 18.1% | viability, T/C (second compound 0.1 µM, first compound 0.000316 µM) 100% | viability, T/C (second compound 0.1 µM, first compound 0.001 µM) 121% | viability, T/C (second compound 0.1 µM, first compound 0.00316 µM) 64% | viability, T/C (second compound 0.1 µM, first compound 0.01 µM) 80% | viability, T/C [3] 56.7% | viability, T/C [4] 18.7% | viability, T/C (second compound 0.316 µM, first compound 0.000316 µM) 135% | viability, T/C (second compound 0.316 µM, first compound 0.001 µM) 77.2% | viability, T/C (second compound 0.316 µM, first compound 0.00316 µM) 94.2% | viability, T/C (second compound 0.316 µM, first compound 0.01 µM) 59.9% | viability, T/C [5] 31.3% | viability, T/C [6] 27.5% | viability, T/C (second compound 1 µM, first compound 0.000316 µM) 89.4% | viability, T/C (second compound 1 µM, first compound 0.001 µM) 124% | viability, T/C (second compound 1 µM, first compound 0.00316 µM) 74.4% | viability, T/C (second compound 1 µM, first compound 0.01 µM) 66.3% | viability, T/C [7] 41.9% | viability, T/C [8] 18.9% | viability, T/C (second compound 3.16 µM, first compound 0.000316 µM) 106% | viability, T/C (second compound 3.16 µM, first compound 0.001 µM) 86.4% | viability, T/C (second compound 3.16 µM, first compound 0.00316 µM) 96% | viability, T/C (second compound 3.16 µM, first compound 0.01 µM) 47.4% | viability, T/C [9] 44.2% | viability, T/C [10] 23.8% | viability, T/C (second compound 10 µM, first compound 0.000316 µM) 80% | viability, T/C (second compound 10 µM, first compound 0.001 µM) 68.5% | viability, T/C (second compound 10 µM, first compound 0.00316 µM) 106% | viability, T/C (second compound 10 µM, first compound 0.01 µM) 52.1% | viability, T/C [11] 30.3% | viability, T/C [12] 17.8%
0.00943 µM: IC50 (second compound 3.16 µM)
0.0195 µM: IC50 (second compound 1 µM)

CC(Cn1ccc(-c2ccc(C#N)c(Cl)c2)n1)NC(=O)c1cc(C(C)O)[nH]n1 (stereo unspecified) + CC(Nc1ncnc2nc[nH]c12)c1cc2cccc(Cl)c2c(=O)n1-c1ccccc1
inactive: viability, T/C [1] 71.5% | viability, T/C [2] 78.8% | viability, T/C [13] 98.5% | viability, T/C [14] 64.6% | viability, T/C [15] 75.5% | viability, T/C [16] 75.1% | viability, T/C [3] 106% | viability, T/C [4] 82.7% | viability, T/C [17] 95.7% | viability, T/C [18] 83.2% | viability, T/C [19] 87.7% | viability, T/C [20] 43.4% | viability, T/C [5] 109% | viability, T/C [6] 82.7% | viability, T/C [21] 105% | viability, T/C [22] 66.6% | viability, T/C [23] 99.8% | viability, T/C [24] 66.3% | viability, T/C [7] 83.9% | viability, T/C [8] 78.8% | viability, T/C [25] 100% | viability, T/C [26] 74.5% | viability, T/C [27] 91.3% | viability, T/C [28] 102% | viability, T/C [9] 90.9% | viability, T/C [10] 53.7% | viability, T/C [29] 79.1% | viability, T/C [30] 90.4% | viability, T/C [31] 47.5% | viability, T/C [32] 71.4% | viability, T/C [11] 67.6% | viability, T/C [12] 48.2% | viability, T/C [33] 71.3% | viability, T/C [34] 51% | viability, T/C [35] 67.5% | viability, T/C [36] 40.1%
8.49 µM: IC50 (second compound 0.1 µM)
> 10 µM: IC50 (second compound 0.0316 µM) | IC50 (second compound 0.316 µM) | IC50 (second compound 1 µM) | IC50 (second compound 3.16 µM) | IC50 (second compound 10 µM)

CCCS(=O)(=O)Nc1ccc(F)c(C(=O)c2c[nH]c3ncc(-c4ccc(Cl)cc4)cc23)c1F + CC(Nc1ncnc2nc[nH]c12)c1cc2cccc(Cl)c2c(=O)n1-c1ccccc1
4.31 µM: IC50 (second compound 1 µM)
4.76 µM: IC50 (second compound 0.0316 µM)
1.79 µM: IC50 (second compound 10 µM)
4.21 µM: IC50 (second compound 0.1 µM)
3.33 µM: IC50 (second compound 0.316 µM)
inactive: viability, T/C [1] 110% | viability, T/C [2] 61.7% | viability, T/C [13] 62.3% | viability, T/C [14] 52% | viability, T/C [15] 90.5% | viability, T/C [3] 78% | viability, T/C [4] 72.6% | viability, T/C [17] 72.7% | viability, T/C [18] 89% | viability, T/C [19] 63.9% | viability, T/C [5] 98.2% | viability, T/C [6] 70% | viability, T/C [21] 101% | viability, T/C [22] 60.6% | viability, T/C [23] 57.8% | viability, T/C [7] 66.9% | viability, T/C [8] 70.5% | viability, T/C [25] 87% | viability, T/C [26] 38.3% | viability, T/C [27] 68.3% | viability, T/C [9] 114% | viability, T/C [10] 89% | viability, T/C [29] 68.6% | viability, T/C [30] 59% | viability, T/C [31] 47.2% | viability, T/C [32] 8.3% | viability, T/C [11] 72.4% | viability, T/C [12] 75.2% | viability, T/C [33] 68.9% | viability, T/C [34] 49.8% | viability, T/C [35] 47.7% | viability, T/C [36] 9.39%
1.35 µM: IC50 (second compound 3.16 µM)
active: viability, T/C [16] 4.04% | viability, T/C [20] 7.99% | viability, T/C [24] 4.81% | viability, T/C [28] 6.14%
